Experimental data as given in US10966426B2, “Herbicidal compositions comprising phenylpyrimidines” (BASF SE, priority 2016, dated 2021).
Where “and” joins values, the source holds several entries; their conditions need not be identical. Equal values may be shown once.

What was measured:
Type in all cases: in vivo
[1] = system: Stellaria media; test: greenhouse post-emergence treatment, STEME
Procedure, shortened: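 Greenhouse; post-emergence spray at 3–15 cm; aqueous EC formulation; 2–4 weeks; 0–100 visual score.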

[2] = system: Alopecurus myosuroides; test: greenhouse pre-emergence treatment, ALOMY; settings: 20 DAT
Procedure, shortened: (§1)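 Damage rated on 0 to 100 scale (0 = normal growth, 100 = no emergence or total above-ground kill) after 2-4 weeks at species-dependent 10-25° C or 20-35° C. Seeds sown per species in loamy sand, ~3.0% humus, treated right after sowing with aqueous spray of single actives or 10% emulsion-concentrate mixtures, then hooded; additive expectation by Colby.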

[3] = system: Matricaria chamomilla; test: greenhouse pre-emergence treatment, MATCH; settings: 20 DAT
Description: The culture containers used were plastic pots containing loamy sand with approximately 3.0% of humus as substrate. The seeds of the test plants were sown separately for each species.
For the pre-emergence treatment, the active compounds, suspended or emulsified in water, were applied directly after sowing by means of finely distributing nozzles. The containers were irrigated gently to promote germination and growth and subsequently covered with transparent plastic hoods until the plants had rooted. This cover caused uniform germination of the test plants unless this was adversely affected by the active compounds.
Depending on the species, the plants were kept at 10-25° C. and 20-35° C., respectively.
The test period extended over 2 to 4 weeks. During this time, the plants were tended and their response to the individual treatments was evaluated.
Evaluation was carried out using a scale from 0 to 100. 100 means no emergence of the plants, or complete destruction of at least the above-ground parts, and 0 means no damage or normal course of growth. A good herbicidal activity is given at values of at least 70, and very good herbicidal activity is given at values of at least 85.
The respective stated components A and B, and if appropriate, C were formulated as a 10% by weight strength emulsion concentrate and, with addition of the amount of solvent system, introduced into the spray liquor used for applying the active compound. In the examples, the solvent used was water.
In the examples below, using the method of S. R. Colby (1967) “Calculating synergistic and antagonistic responses of herbicide combinations”, Weeds 15, p. 22ff., the value E, which is expected if the activity of the individual active compounds is only additive, was calculated. E=X+Y−(X·Y/100) where X=effect in percent using herbicide A at an application rate a; • Y=effect in percent using herbicide B at application rate b; • E=expected effect (in %) of herbicide A+herbicide B at application rates a+b.

[4] = system: Setaria viridis; test: greenhouse pre-emergence treatment, SETVI
Procedure, shortened: as §1

[5] = system: Helianthus annuus; test: greenhouse pre-emergence treatment, HELAN; settings: HELAN
Procedure, shortened: as §1

[6] = system: Lolium multiflorum; test: greenhouse pre-emergence treatment, LOLMU
Procedure, shortened: as §1

[7] = system: Poa annua; test: greenhouse pre-emergence treatment, POAAN; settings: 20 DAT
Procedure, shortened: as §1

[8] = system: Echinocloa crus-galli; test: greenhouse pre-emergence treatment, ECHCG
Procedure, shortened: as §1

[9] = system: Bromus sterilis; test: greenhouse pre-emergence treatment, BROST
Procedure, shortened: as §1

[10] = system: Digitaria sanguinalis; test: greenhouse pre-emergence treatment, DIGSA
Procedure, shortened: as §1

[11] = 20 DAT, Ex. 26 solo 62.5 gai/ha
[12] = 20 DAT, Ex. 26 solo 31.25 gai/ha
[13] = 20 DAT, solo Ex. 26 62.5 gai/ha
[14] = Ex. 26 solo 31.25 gai/ha, 20 DAT
[15] = Ex. 26 solo 62.5 gai/ha, 20 DAT

COC(=O)c1nc(C2CC2)ncc1-c1ccc(F)cc1Cl [Ex. 26]
% activity [1, 11]: 0% | % activity ([1]; 20 DAT, STEME, Ex. 26 solo 250 gai/ha): 60% | % activity ([1]; Ex. 26 solo 62.5 gai/ha, 20 DAT, STEME): 20% | % activity ([1]; Ex. 26 solo 125 gai/ha, 20 DAT, STEME): 55% | % activity ([1]; Ex. 26 solo 125 gai/ha, 21 DAT, STEME): 0% | % activity ([1]; Ex. 26 solo 250 gai/ha, 20 DAT, STEME): 30% | % activity ([1]; Ex. 26 solo, 125 gai/ha, 21 DAT, STEME): 0% | % activity ([1]; Ex. 26 solo, 250 gai/ha, 21 DAT, STEME): 10% | % activity ([1]; STEME, 21 DAT, solo Ex. 26 62.5 gai/ha): 0% | % activity ([1]; STEME, 21 DAT, solo Ex. 26 125 gai/ha): 0% | % activity ([1]; STEME, 21 DAT, solo Ex. 26 250 gai/ha): 10% | % activity ([1]; STEME, Ex. 26 solo 125 gai/ha, 20 DAT): 40% | % activity ([1]; STEME, Ex. 26 solo 250 gai/ha, 20 DAT): 40% | % activity ([2]; solo Ex. 26 62.5 gai/ha): 85% | % activity ([2]; Ex. 26 solo 62.5 gai/ha): 60% | % activity ([2]; Ex. 26 solo, 31.25 gai/ha): 60% | % activity ([2]; Ex. 26 solo, 62.5 gai/ha): 80% | % activity ([3]; Ex. 26 solo 62.5 gai/ha): 0% | % activity ([3]; Ex. 26 solo 125 gai/ha): 0% | % activity [4, 12]: 0% | % activity [4, 11]: 0% | % activity ([4]; 20 DAT, Ex. 26 solo 125 gai/ha): 10% | % activity ([4]; Ex. 26 solo 62.5 gai/ha, 20 DAT, SETVI): 0% | % activity ([4]; Ex. 26 solo 62.5 gai/ha, 21 DAT, SETVI): 0% | % activity ([4]; Ex. 26 solo 125 gai/ha, 20 DAT, SETVI): 0% | % activity ([4]; Ex. 26 solo 125 gai/ha, 21 DAT, SETVI): 20% | % activity ([4]; Ex. 26 solo 250 gai/ha, 21 DAT, SETVI): 25% | % activity ([4]; Ex. 26 solo, 31.25 gai/ha, 20 DAT, SETVI): 0% | % activity ([4]; Ex. 26 solo, 62.5 gai/ha, 20 DAT, SETVI): 0% | % activity ([4]; Ex. 26 solo, 125 gai/ha, 20 DAT, SETVI): 0% | % activity ([4]; SETVI, 20 DAT, solo Ex. 26 125 gai/ha): 0% | % activity ([4]; SETVI, Ex. 26 solo 125 gai/ha, 20 DAT): 10% | % activity ([4]; SETVI, Ex. 26 solo 250 gai/ha, 20 DAT): 35% | % activity [5, 12]: 0% | % activity [5, 11]: 20% | % activity ([5]; 20 DAT, Ex. 26 solo 125 gai/ha): 0% | % activity ([5]; 21 DAT, Ex. 26 solo 125 gai/ha): 0% | % activity ([5]; 21 DAT, Ex. 26 solo 250 gai/ha): 0% | % activity ([5]; Ex. 26 solo 125 gai/ha, 21 DAT): 0% | % activity ([5]; Ex. 26 solo 250 gai/ha, 21 DAT): 0% | % activity ([5]; Ex. 26 solo, 62.5 gai/ha, 20 DAT): 0% | % activity ([5]; Ex. 26 solo, 125 gai/ha, 20 DAT): 0% | % activity [5, 13]: 0% | % activity [5, 14]: 0% | % activity [5, 15]: 0% | % activity ([5]; Ex. 26 solo 125 gai/ha, 20 DAT): 0% | % activity [6, 12]: 10% | % activity ([6]; 20 DAT, LOLMU, Ex. 26 solo 62.5 gai/ha): 10% | % activity ([6]; Ex. 26 solo 62.5 gai/ha, 20 DAT, LOLMU): 30% | % activity ([6]; Ex. 26 solo, 31.25 gai/ha, 20 DAT, LOLMU): 0% | % activity ([6]; Ex. 26 solo, 62.5 gai/ha, 20 DAT, LOLMU): 0% | % activity ([6]; Ex. 26 solo, 125 gai/ha, 20 DAT, LOLMU): 0% | % activity ([6]; LOLMU, 20 DAT, solo Ex. 26 62.5 gai/ha): 0% | % activity ([6]; LOLMU, 20 DAT, solo Ex. 26 62.5 gai/ha (Table X68)): 0% | % activity ([6]; LOLMU, 20 DAT, solo Ex. 26 125 gai/ha): 0% | % activity ([6]; LOLMU, Ex. 26 solo 31.25 gai/ha, 20 DAT): 0% | % activity ([6]; LOLMU, Ex. 26 solo 62.5 gai/ha, 20 DAT): 0% | % activity ([6]; LOLMU, Ex. 26 solo 125 gai/ha, 20 DAT): 30% | % activity ([7]; solo Ex. 26 62.5 gai/ha): 70% | % activity ([7]; solo Ex. 26 125 gai/ha): 65% | % activity ([7]; Ex. 26 solo 62.5 gai/ha): 75% and 90% | % activity ([7]; Ex. 26 solo, 31.25 gai/ha): 30% | % activity ([7]; Ex. 26 solo, 125 gai/ha): 65% | % activity [8, 12]: 50% | % activity ([8]; 20 DAT, Ex. 26 solo 125 gai/ha): 90% | % activity [8, 13]: 60% | % activity [8, 14]: 50% | % activity [8, 15]: 70% | % activity ([8]; Ex. 26 solo 125 gai/ha, 20 DAT): 90% | % activity ([8]; Ex. 26 solo, 31.25 gai/ha, 20 DAT): 50% | % activity ([9]; 20 DAT, BROST, Ex. 26 solo 31.25 gai/ha): 10% | % activity ([9]; 20 DAT, BROST, Ex. 26 solo 125 gai/ha): 35% | % activity ([9]; 21 DAT, BROST, Ex. 26 solo 125 gai/ha): 60% | % activity ([9]; BROST, 20 DAT, solo Ex. 26 125 gai/ha): 35% | % activity ([9]; BROST, 20 DAT, solo Ex. 26 125 gai/ha (Table X68)): 30% | % activity ([9]; BROST, Ex. 26 solo 62.5 gai/ha, 20 DAT): 20% | % activity ([9]; BROST, Ex. 26 solo 125 gai/ha, 20 DAT): 30% | % activity ([9]; Ex. 26 solo 125 gai/ha, 20 DAT, BROST): 35% | % activity ([9]; Ex. 26 solo, 31.25 gai/ha, 20 DAT, BROST): 0% | % activity ([9]; Ex. 26 solo, 62.5 gai/ha, 20 DAT, BROST): 20% | % activity ([9]; Ex. 26 solo, 125 gai/ha, 20 DAT, BROST): 30% | % activity [10, 12]: 30% | % activity [10, 11]: 30% | % activity ([10]; 20 DAT, Ex. 26 solo 125 gai/ha): 60% | % activity ([10]; DIGSA, 20 DAT, solo Ex. 26 62.5 gai/ha): 20% | % activity ([10]; DIGSA, 20 DAT, solo Ex. 26 125 gai/ha): 45% | % activity ([10]; DIGSA, 20 DAT, solo Ex. 26 125 gai/ha (Table X68)): 40% | % activity ([10]; DIGSA, Ex. 26 solo 31.25 gai/ha, 20 DAT): 35% | % activity ([10]; DIGSA, Ex. 26 solo 62.5 gai/ha, 20 DAT): 55% | % activity ([10]; DIGSA, Ex. 26 solo 125 gai/ha, 20 DAT): 60% | % activity ([10]; Ex. 26 solo 125 gai/ha, 21 DAT, DIGSA): 45% | % activity ([10]; Ex. 26 solo, 31.25 gai/ha, 20 DAT, DIGSA): 5% | % activity ([10]; Ex. 26 solo, 125 gai/ha, 20 DAT, DIGSA): 40%
